Laboratory results as given in patent publication US20060241038A1, “Therapeutic agent for Abeta related disorders” (Eisai Co., Ltd., priority 2005, published 2006).
“Also recorded” adds a separate entry of the source.

Assays:
[1] = test system: Aβ42 production; details: reported in 2001 (refs 13, 14); cited from earlier work
[2] = Thioflavin T (ThT) analysis for aggregation ability of each Aβ; type: physicochemical; details: each Aβ alone, in 10 mM HEPES containing 0.9% NaCl, 37° C.; 10 μM ThT
Description: (§1) After addition of ThT (SIGMA) at a final concentration of 10 μM, each sample was transferred to a 96-well black plate (Corning) and stirred for 10 seconds, followed by measuring the fluorescence intensity for each sample. Using a fluorospectrometer (LJL Biosystems), the fluorescence intensity at a wavelength of 490 nm was measured with an excitation light of 450 nm wavelength.

[3] = test system: Aβ fragments in rat fetal brain-derived nerve cell culture medium; test: MALDI-TOF/MS analysis of Aβ in rat fetal brain-derived nerve cell culture medium; type: cell-based; details: 3 days culture with various concentrations of test compound; normalized to internal standard Aβ12-28
Description: In the same manner as shown in Example 3 above, brain cortex-derived nerve cells were prepared from Wistar rats at 18 days of embryonic age. The nerve cell suspension was diluted with a medium and seeded onto 10 cm polystyrene culture dishes pre-coated with poly-D-lysine (BIOCOAT® cell environments Poly-D-lysine cell culture dish, Becton Dickinson Labware) in a volume of 15 ml/dish so as to give an initial cell density of 3.5×10^5 cells/cm^2. After the seeded cells were cultured for 1 day in an incubator with 5% CO2, 95% air at 37° C., the medium was entirely replaced by fresh Neurobasal/B27/2ME, followed by culturing for an additional 3 days.
(§2) At 4 days after initiation of culturing, the test compounds synthesized in the preceding Examples, i.e., Compound A, Compound B (CAS#501907-79-5) or Compound C (CAS#670250-40-5) were added as follows. The medium was entirely removed and replaced by Neurobasal/B27/2ME free from 2-ME (i.e., Neurobasal/B27) in a volume of 11 ml/dish. The test compounds (Compounds A, B and C) in DMSO were diluted with Neurobasal/B27 to 100-fold of their final concentration and added in a volume of 110 μl/dish, followed by sufficient mixing. The final DMSO concentration was kept at 1% or below. The control group received DMSO alone.
(§3) After addition of the test compounds, the cells were cultured for 3 days and the whole volume of the medium was collected from each dish. The resulting medium was provided as a MALDI-TOF/MS sample.
Each sampled culture supernatant was collected in a 15 mL centrifuge tube and supplemented with 400 μL of a 25-fold concentrated solution of protease inhibitor cocktail Complete (Roche Diagnostics GmbH), followed by centrifugation at 4° C. at 3,000 rotations/minute for 5 minutes to sediment cell fragments. The resulting supernatant was transferred to another 15 mL centrifuge tube and supplemented with synthetic Aβ12-28 (Bachem) as an internal standard at a final concentration of 2 nM, followed by addition of 5 μg anti-Aβ monoclonal antibody (clone name: 4G8, Signet Laboratories, Inc). Subsequently, 5 μL of Protein G plus Protein A Agarose (Oncogene Research Products) was added after being blocked at 4° C. with 2% BSA and washed with TBS buffer. Further, 3-[(3-cholamidopropyl)dimethylammonio]-1-propanesulfonate (CHAPS; SIGMA) was added to each tube at a final concentration of 1%, followed by mixing at 4° C. for 4 to 8 hours.
The Protein G plus Protein A Agarose holding the immunoprecipitated Aβ fragments adsorbed thereto was collected from each tube by centrifugation at 4° C. at 3,000 rotations/minute for 5 minutes and transferred to a 1.5 mL microtube. The Protein G plus Protein A Agarose was washed twice with 500 μL of 140 mM NaCl, 0.1% N-Octyl Glucoside (NOG; Loche Diagnostics GmbH), 10 mM Tris-HCl, pH 8, once with 500 μL of Tris-HCl, 10 mM, pH 8, and then once with 500 μL of ion exchanged water. After washing with ion exchanged water, as much fluid as possible was removed from each tube and Aβs were eluted with 5 μL of 0.2% NOG, 2.4% trifluoroacetic acid (TFA; PIERCE) and 48.7% acetonitrile (HPLC grade, Wako Pure Chemical Industries, Ltd.). Independently of this, α-cyano-4-hydroxy-cinnamic acid (CHCA; BRUKER DALTONICS) was dissolved in 0.2% NOG, 0.1% TFA and 33% acetonitrile at a saturating concentration and supplemented with human insulin (Peptide Institute, Inc.) and angiotensin III (Peptide Institute, Inc.) as mass standards at fmal concentrations of 167 nM and 56 nM, respectively, for use as a matrix solution. Each Aβ eluate (0.5 μL) and the matrix solution (0.5 μL) were spotted at the same position on a sample plate for mass spectrometry and air-dried at room temperature, followed by analysis with a mass spectrometer Voyager DE (Applied Biosystems). All mass data detected were corrected for the mass of human insulin and angiotensin III (5807.6 and 931.1, respectively). […]

[4] = test system: Aβ42; test: ELISA quantification of Aβ42 in rat fetal brain-derived nerve cell culture medium; type: cell-based; details: 3 days culture; effect stated as concentration-dependent (FIGS. 7-1 to 7-3)
Description: as §2, §3
(§4) A part of each medium collected in Example 7(3) aforementioned was used as an ELISA sample. Each sample was not diluted for Aβ42 measurement, while it was diluted 5-fold for Aβ40 measurement with a diluent attached to an ELISA kit before being subjected to ELISA.
(§5) Aβ ELISA was performed using a Human Amyloid beta (1-42) Assay Kit (#17711, IBL Co., Ltd.) and a Human Amyloid beta (1-40) Assay Kit (#17713, IBL Co., Ltd.) in accordance with the kit's recommended protocol (the procedures described in the attached document), provided that a calibration curve for each Aβ was prepared using beta-amyloid peptide 1-42 (rat) or beta-amyloid peptide 1-40 (rat) (Calbiochem. #171596[Aβ4 2] or #171593[Aβ4 0]). The results were expressed as percentages (% of Control) relative to the Aβ concentration in the medium from the control group (untreated group, Control).

[5] = test system: Aβ40; test: ELISA quantification of Aβ40 in rat fetal brain-derived nerve cell culture medium; type: cell-based; details: 3 days culture; effect stated as concentration-dependent (FIGS. 7-1 to 7-3)
Description: as §2, §3, §4, §5

[6] = Circular dichroism (CD) analysis of each Aβ (secondary structure); type: physicochemical; details: each Aβ alone, 37° C., until 5 days
Description: The solution was then dispensed in 10 to 30 μL aliquots into 500 μL polypropylene microtubes and stored at −80° C. until use.
The Aβ solutions in HFIP were evaporated using a centrifugal evaporator (Tomy Seiko Co., Ltd., CC-180 and ST-10) to remove HFIP and then dissolved in a solution of 10 mM HEPES containing 0.9% NaCl. Each of the resulting Aβ solution was incubated at 37° C. and measured for their CD at different time points.
The Aβ-containing solutions were injected into washed quartz cells with an optical path length of 1 or 2 mm and measured for their CD. Until measurement, the quartz cells were allowed to stand at 37° C., 100% humidity.

[7] = target: T1, Aβ1-42 (Homo sapiens, UniProt P05067); test: ThT fluorescence of 1:3 mixtures of Aβ1-42 and each Aβ; type: biochemical; details: Aβ1-42 mixed with the Aβ at a ratio of 1:3
T1 construct: purchased Peptide Institute, Inc. 4349-v
Description: as §1

[8] = target: T1, Aβ1-42; test: CD measurement on a 1:3 mixture of Aβ1-42 and each Aβ (β-sheet structure formation in Aβ1-42); type: biochemical; details: 5 μM Aβ1-42 mixed with 15 μM of the Aβ (1:3)
Description: The solution was then dispensed in 10 to 30 μL aliquots into 500 μL polypropylene microtubes and stored at −80° C. until use. The Aβ solutions in HFIP were evaporated using a centrifugal evaporator (Tomy Seiko Co., Ltd., CC-180 and ST-10) to remove HFIP and then dissolved in a solution of 10 mM HEPES containing 0.9% NaCl. Each of the resulting Aβ solution was incubated at 37° C. and measured for their CD at different time points. […] The Aβ-containing solutions were injected into washed quartz cells with an optical path length of 1 or 2 mm and measured for their CD. Until measurement, the quartz cells were allowed to stand at 37° C., 100% humidity.

| Compound | fluorescence intensity of ThT (content of β-sheet structure) with incubation time [2] | Aβ1-37 or Aβ11-37 production (MALDI-TOF/MS) [3] | Aβ1-38 or Aβ11-38 production (MALDI-TOF/MS) [3] | Aβ1-40 or Aβ11-40 production (MALDI-TOF/MS) [3] | Aβ1-42 or Aβ11-42 (peak intensity, MALDI-TOF/MS) [3] | Aβ42 production (ELISA, % of Control) [4] | Aβ40 production (ELISA, % of Control) [5] | also measured |
| --- | --- | --- | --- | --- | --- | --- | --- | --- |
| CC(C)Cc1ccc(C(C)C(=O)O)cc1 (stereo not shown) [ibuprofen] |  |  |  |  |  |  |  | effect on Aβ42 production [1]: selectively inhibit Aβ42 production |
| Aβ1-42: human-type Aβ1-42 (Peptide Institute, Inc., Prod. # 4349-v); amyloid β peptide | increased with increasing incubation time |  |  |  |  |  |  |  |
| N#Cc1ccc(NC(=O)NC(=N)Nc2ccc(Cl)cc2)cc1 [Compound B, N-{[(4-chlorophenyl)amino]iminomethyl}-N′-(4-cyanophenyl)urea] |  | enhanced in a manner dependent on the concentration of Compound B | enhanced in a manner dependent on the concentration of Compound B | inhibited in a manner dependent on the concentration of Compound B | no detectable change | inhibited | inhibited |  |
| CNC(=O)n1ccc2cc(Oc3ccnc(NC(=O)N[C@H](CO)C(=O)N4CCCCC4)c3)ccc21 [Compound C, 5-{2-{3-[(1R)-1-hydroxymethyl-2-oxo-2-piperidin-1-ylethyl]ureido}pyridin-4-yloxy}-1H-indole-1-carboxylic acid methylamide] |  | enhanced in a manner dependent on the concentration of Compound C |  | tended to be inhibited | no detectable change | inhibited | inhibited | Aβ1-39 or Aβ11-39 production (MALDI-TOF/MS) [3]: enhanced in a manner dependent on the concentration of Compound C |
| Aβ1-40: human-type Aβ1-40 (Peptide Institute, Inc., Prod. # 4307-v); amyloid β peptide | no increase in the fluorescence intensity |  |  |  |  |  |  | likelihood of forming a β-sheet structure (CD), compared with Aβ1-42 [6]: less likely to form a β-sheet structure than Aβ1-42; increase in ThT fluorescence intensity (β-sheet structure formation) of Aβ1-42 compared to Aβ1-42 alone [7]: the formation of β-sheet structure was inhibited; also recorded: the increase in the fluorescence intensity was inhibited; effect on β-sheet structure formation in Aβ1-42 (CD) [8]: weaker than that of Aβ1-37 or Aβ1-38; time after mixing with Aβ1-42 at which a CD spectrum indicative of β-sheet structure was detected ([8]; 37° C., Aβ1-42+buffer showed β-sheet from 1 day): 2 days |
| COc1cc(/C=C/C(=O)NCc2cccc(-c3ccccc3)c2)ccc1-n1cnc(C)c1 [Compound A, (E)-N-biphenyl-3-ylmethyl-3-[3-methoxy-4-(4-methylimidazol-1-yl)phenyl]acrylamide] |  | enhanced in a manner dependent on the concentration of Compound A | enhanced in a manner dependent on the concentration of Compound A | inhibited in a manner dependent on the concentration of Compound A | no detectable change | inhibited | inhibited |  |
